Test results from patent US11091478B2 (Fochon Pharmaceuticals, Ltd., priority 2017, dated 2021).

Experiments:
DOHH2 cells = test: Cell proliferation assay (MTS), DOHH2 cells, 120 h; format: cell-based; conditions: Homo sapiens, DOHH-2, 120 h
How it was run: (§1)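 Cells in RPMI-1640 with 10% FBS were seeded at 5000/well, left overnight at 37° C., 5% CO2, then exposed to compound at 10000 down to 1.5 nM (nine concentrations) for 72 h (RS4;11) or 120 h (DOHH2). Viability was read by MTS, 2 h, absorbance at 490/650 nm; IC50 calculated.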

RS4;11 cells = test: Cell proliferation assay (MTS), RS4;11 cells, 72 h; format: cell-based; conditions: Homo sapiens, RS4-11, 72 h
How it was run: as §1

SMILES	IC50 (DOHH2 cells) [nM]	IC50 (RS4;11 cells) [nM]
CN(C)C[C@H]1COc2cc(S(=O)(=O)NC(=O)c3ccc(N4CCN(CC5=C(c6ccc(Cl)cc6)CC(C)(C)CC5)CC4)cc3Oc3cnc4[nH]ccc4c3)cc([N+](=O)[O-])c2N1 [Example 2-20, (S)-2-((1H-pyrrolo[2,3-b]pyridin-5-yl)oxy)-4-(4-((4′-chloro-5,5-dimethyl-3,4,5,6-tetra-hydro-[1,1′-biphenyl]-2-yl)methyl)piperazin-1-yl)-N-((3-((dimethylamino)methyl)-5-nitro-3,4-dihydro-2H-benzo[b][1,4]oxazin-7-yl)sulfonyl)benzamide]	59	29
CC1(C)CCC(CN2CCN(c3ccc(C(=O)NS(=O)(=O)c4cc5c(c([N+](=O)[O-])c4)N[C@H](CN4CC(C)(O)C4)CO5)c(Oc4cnc5[nH]ccc5c4)c3)CC2)=C(c2ccc(Cl)cc2)C1 [Example 2-21, (R)-2-((1H-pyrrolo[2,3-b]pyridin-5-yl)oxy)-4-(4-((4′-chloro-5,5-dimethyl-3,4,5,6-tetra-hydro-[1,1′-biphenyl]-2-yl)methyl)piperazin-1-yl)-N-((3-((3-hydroxy-3-methylazetidin-1-yl)methyl)-5-nitro-3,4-dihydro-2H-ben-zo[b][1,4]oxazin-7-yl)sulfonyl)benzamide]	8	1
C[C@@H]1CN(C[C@@H]2COc3cc(S(=O)(=O)NC(=O)c4ccc(N5CCN(CC6=C(c7ccc(Cl)cc7)CC(C)(C)CC6)CC5)cc4Oc4cnc5[nH]ccc5c4)cc([N+](=O)[O-])c3N2)CCN1C1COC1 [Example 2-22, 2-((1H-pyrrolo[2,3-b]pyridin-5-yl)oxy)-4-(4-((4′-chloro-5,5-dimethyl-3,4,5,6-tetra-hydro-[1,1′-biphenyl]-2-yl)methyl)piperazin-1-yl)-N-(((R)-3-(((R)-3-methyl-4-(oxetan-3-yl)piperazin-1-yl)methyl)-5-nitro-3,4-dihydro-2H-benzo[b][1,4]oxazin-7-yl)sulfonyl) benzamide]	2	1
C[C@@H]1CN(C[C@@H]2COc3cc(S(=O)(=O)NC(=O)c4ccc(N5CCN(CC6=C(c7ccc(Cl)cc7)CC(C)(C)CC6)CC5)cc4Oc4cnc5[nH]ccc5c4)cc([N+](=O)[O-])c3N2)CCO1 [Example 2-23, 2-((1H-pyrrolo[2,3-b]pyridin-5-yl)oxy)-4-(4-((4′-chloro-5,5-dimethyl-3,4,5,6-tetra-hydro-[1,1′-biphenyl]-2-yl)methyl)piperazin-1-yl)-N-(((R)-3-(((R)-2-methylmorpholino)methyl)-5-nitro-3,4-dihydro-2H-benzo[b][1,4]oxazin-7-yl)sulfonyl)benzamide]	33	7
CC1(C)CCC(CN2CCN(c3ccc(C(=O)NS(=O)(=O)c4cc5c(c([N+](=O)[O-])c4)N[C@@H](CN4CC(O)C4)CO5)c(Oc4cnc5[nH]ccc5c4)c3)CC2)=C(c2ccc(Cl)cc2)C1 [Example 2-24, (S)-2-((1H-pyrrolo[2,3-b]pyridin-5-yl)oxy)-4-(4-((4′-chloro-5,5-dimethyl-3,4,5,6-tetra-hydro-[1,1′-biphenyl]-2-yl)methyl)piperazin-1-yl)-N-((3-((3-hydroxyazetidin-1-yl)meth-yl)-5-nitro-3,4-dihydro-2H-benzo[b][1,4]oxazin-7-yl)sulfonyl)benzamide]	115	72
CC1(C)CCC(CN2CCN(c3ccc(C(=O)NS(=O)(=O)c4cc5c(c([N+](=O)[O-])c4)N[C@@H](CN4CC(C)(O)C4)CO5)c(Oc4cnc5[nH]ccc5c4)c3)CC2)=C(c2ccc(Cl)cc2)C1 [Example 2-25, (S)-2-((1H-pyrrolo[2,3-b]pyridin-5-yl)oxy)-4-(4-((4′-chloro-5,5-dimethyl-3,4,5,6-tetra-hydro-[1,1′-biphenyl]-2-yl)methyl)piperazin-1-yl)-N-((3-((3-hydroxy-3-methylazetidin-1-yl)methyl)-5-nitro-3,4-dihydro-2H-ben-zo[b][1,4]oxazin-7-yl)sulfonyl)benzamide]	10	8
C[C@@H]1CN(C[C@H]2COc3cc(S(=O)(=O)NC(=O)c4ccc(N5CCN(CC6=C(c7ccc(Cl)cc7)CC(C)(C)CC6)CC5)cc4Oc4cnc5[nH]ccc5c4)cc([N+](=O)[O-])c3N2)CCN1C [Example 2-26, 2-((1H-pyrrolo[2,3-b]pyridin-5-yl)oxy)-4-(4-((4′-chloro-5,5-dimethyl-3,4,5,6-tetrahydro-[1,1′-biphenyl]-2-yl)methyl)piperazin-1-yl)-N-(((S)-3-(((R)-3,4-dimethylpiperazin-1-yl)methyl)-5-nitro-3,4-dihydro-2H-benzo [b][1,4]oxazin-7-yl)sulfonyl)benzamide]	19	6
C[C@H]1CN(C[C@H]2COc3cc(S(=O)(=O)NC(=O)c4ccc(N5CCN(CC6=C(c7ccc(Cl)cc7)CC(C)(C)CC6)CC5)cc4Oc4cnc5[nH]ccc5c4)cc([N+](=O)[O-])c3N2)CCN1C [Example 2-27, 2-((1H-pyrrolo[2,3-b]pyridin-5-yl)oxy)-4-(4-((4′-chloro-5,5-dimethyl-3,4,5,6-tetra-hydro-[1,1′-biphenyl]-2-yl)methyl)piperazin-1-yl)-N-(((S)-3-(((S)-3,4-dimethylpiperazin-1-yl)methyl)-5-nitro-3,4-dihydro-2H-benzo [b][1,4]oxazin-7-yl)sulfonyl)benzamide]	12	1
CC1(C)CCC(CN2CCN(c3ccc(C(=O)NS(=O)(=O)c4cc5c(c([N+](=O)[O-])c4)N[C@@H](CN4CCN(C6COC6)CC4)CO5)c(Oc4cnc5[nH]ccc5c4)c3)CC2)=C(c2ccc(Cl)cc2)C1 [Example 2-28, (S)-2-((1H-pyrrolo[2,3-b]pyridin-5-yl)oxy)-4-(4-((4′-chloro-5,5-dimethyl-3,4,5,6-tetra-hydro-[1,1′-biphenyl]-2-yl)methyl)piperazin-1-yl)-N-((5-nitro-3-((4-(oxetan-3-yl)piper-azin-1-yl)methyl)-3,4-dihydro-2H-benzo[b] [1,4]oxazin-7-yl)sulfonyl)benzamide]	1	1
C[C@@H]1CN(C[C@H]2COc3cc(S(=O)(=O)NC(=O)c4ccc(N5CCN(CC6=C(c7ccc(Cl)cc7)CC(C)(C)CC6)CC5)cc4Oc4cnc5[nH]ccc5c4)cc([N+](=O)[O-])c3N2)CCN1C1COC1 [Example 2-29, 2-((1H-pyrrolo[2,3-b]pyridin-5-yl)oxy)-4-(4-((4′-chloro-5,5-dimethyl-3,4,5,6-tetrahydro-[1,1′-biphenyl]-2-yl)methyl)piperazin-1-yl)-N-(((S)-3-(((R)-3-methyl-4-(oxetan-3-yl)piperazin-1-yl)methyl)-5-nitro-3,4-dihydro-2H-benzo[b][1,4]oxazin-7-yl)sulfonyl) benzamide]	7	1
C[C@H]1CN(C[C@H]2COc3cc(S(=O)(=O)NC(=O)c4ccc(N5CCN(CC6=C(c7ccc(Cl)cc7)CC(C)(C)CC6)CC5)cc4Oc4cnc5[nH]ccc5c4)cc([N+](=O)[O-])c3N2)CCN1C1COC1 [Example 2-30]	8	1
C[C@H]1CN(C[C@H]2COc3cc(S(=O)(=O)NC(=O)c4ccc(N5CCN(CC6=C(c7ccc(Cl)cc7)CC(C)(C)CC6)CC5)cc4Oc4cnc5[nH]ccc5c4)cc([N+](=O)[O-])c3N2)CCO1 [Example 2-31, 2-((1H-pyrrolo[2,3-b]pyridin-5-yl)oxy)-4-(4-((4′-chloro-5,5-dimethyl-3,4,5,6-tetrahydro-[1,1′-biphenyl]-2-yl)methyl)piperazin-1-yl)-N-(((S)-3-(((S)-2-methylmorpholino)meth-yl)-5-nitro-3,4-dihydro-2H-benzo[b][1,4]oxazin-7-yl)sulfonyl)benzamide]	18	7
